Measurements from patent US20060293307A1, “Oxazolidinone derivatives as antimicrobials” (priority 2002, published 2006).
≈ marks a conversion by molar mass, not a printed value.

Tests used:
S. pneumoniae 1256 = assay: MIC, agar incorporation method; assay type: cell-based, Streptococcus pneumoniae; conditions: Streptococcus pneumoniae; S. No. 56, S. pneumoniae 1256; read-out: MIC
[1] = test system: S. epidermidis ATCC 12228; assay: MIC, agar incorporation method; assay type: cell-based, Staphylococcus epidermidis; conditions: Staphylococcus epidermidis, ATCC12228; S. No. 10, S. epidermidis ATCC 12228; read-out: MIC
Salmonella 205 = assay: MIC, agar incorporation method; assay type: cell-based; conditions: S. No. 26, Salmonella 205; read-out: MIC
Protocol: The compounds of the invention display antibacterial activity when tested by the agar incorporation method. The following minimum inhibitory concentrations (μg/ml) were obtained for representative compounds of the invention which are given below in the following tables.
Briefly, the compounds were dissolved in DMSO and doubling dilution of the compounds were incorporated into Meer Hilton agar before solidification. Inoculum was prepared by suspending 4 to 5 colonies into 5 ml of normal saline solution and adjusting the turbidity to 0.5 Macfarland turbidity standard tables (1.5×10^8 CFU/ml), after appropriate dilutions, 10^4 CFU/spot was transfered into the surface of dried plate and incubated for 18 hours (24 hours for MRSN studies). The concentration showing no growth of the inoculated culture was recorded as the MIC. Appropriate ATCC standard strains were simultaneously tested and result recorded only when the MIC's against standard antibiotics were within the acceptable range.

[2] = test system: S. epidermidis (MRSE) 23760; assay: MIC, agar incorporation method; assay type: cell-based, Staphylococcus epidermidis; conditions: Staphylococcus epidermidis; S. No. 11, S. epidermidis (MRSE) 23760; read-out: MIC
H. influenzae 1381 = assay: MIC against Haemophilus strains; assay type: cell-based; conditions: Haemophilus influenzae; s. No. 7, H. influenzae 1381; read-out: MIC
E. faecium 6A (VRE) = assay: MIC, agar incorporation method; assay type: cell-based, Enterococcus faecium; conditions: Enterococcus faecium; S. No. 21, E. faecium 6A (VRE); read-out: MIC
S. epidermidis 358 = assay: MIC, agar incorporation method; assay type: cell-based, Staphylococcus epidermidis; conditions: Staphylococcus epidermidis; S. No. 14, S. epidermidis 358; read-out: MIC
S. pneumoniae AB-2 = assay: MIC, agar incorporation method; assay type: cell-based, Streptococcus pneumoniae; conditions: Streptococcus pneumoniae, AB2; S. No. 31, S. pneumoniae AB-2; read-out: MIC
S. pneumoniae ATCC 49619 = assay: MIC, agar incorporation method; assay type: cell-based, Streptococcus pneumoniae; conditions: Streptococcus pneumoniae, ATCC49619; S. No. 48, S. pneumoniae ATCC 49619; read-out: MIC
K. oxytoca 49131 = assay: MIC, agar incorporation method; assay type: cell-based; conditions: Klebsiella oxytoca; S. No. 27, K. oxytoca 49131; read-out: MIC
S. pneumoniae AB-3 = assay: MIC, agar incorporation method; assay type: cell-based, Streptococcus pneumoniae; conditions: Streptococcus pneumoniae, AB3; S. No. 32, S. pneumoniae AB-3; read-out: MIC
S. pyogenes 25147 = assay: MIC, agar incorporation method; assay type: cell-based, Streptococcus pyogenes; conditions: Streptococcus pyogenes; S. No. 52, S. pyogenes 25147; read-out: MIC
S. pneumoniae 1251 = assay: MIC, agar incorporation method; assay type: cell-based, Streptococcus pneumoniae; conditions: Streptococcus pneumoniae; S. No. 54, S. pneumoniae 1251; read-out: MIC
S. pneumoniae AB 30 = assay: MIC, agar incorporation method; assay type: cell-based, Streptococcus pneumoniae; conditions: Streptococcus pneumoniae, AB30; S. No. 47, S. pneumoniae AB 30; read-out: MIC
H. influenzae 49766 = assay: MIC against Haemophilus strains; assay type: cell-based; conditions: Haemophilus influenzae; s. No. 6, H. influenzae 49766; read-out: MIC
S. aureus (MRSA) ST450 = assay: MIC, agar incorporation method; assay type: cell-based, Staphylococcus aureus; conditions: Staphylococcus aureus; S. No. 6, S. aureus (MRSA) ST450; read-out: MIC
Moraxella M6 = assay: MIC, agar incorporation method; assay type: cell-based; conditions: S. No. 60, Moraxella M6; read-out: MIC
E. faecalis 21777 = assay: MIC, agar incorporation method; assay type: cell-based; conditions: Enterococcus faecalis; S. No. 18, E. faecalis 21777; read-out: MIC
S. aureus (MRSA) 15187 = assay: MIC, agar incorporation method; assay type: cell-based, Staphylococcus aureus; conditions: Staphylococcus aureus; S. No. 4, S. aureus (MRSA) 15187; read-out: MIC
E. faecalis SP 346 (VRE) = assay: MIC, agar incorporation method; assay type: cell-based; conditions: Enterococcus faecalis; S. No. 20, E. faecalis SP 346 (VRE); read-out: MIC
S. epidermidis 823 = assay: MIC, agar incorporation method; assay type: cell-based, Staphylococcus epidermidis; conditions: Staphylococcus epidermidis; S. No. 12, S. epidermidis 823; read-out: MIC
S. pneumoniae AB 22 = assay: MIC, agar incorporation method; assay type: cell-based, Streptococcus pneumoniae; conditions: Streptococcus pneumoniae, AB22; S. No. 42, S. pneumoniae AB 22; read-out: MIC
S. pneumoniae AB 23 = assay: MIC, agar incorporation method; assay type: cell-based, Streptococcus pneumoniae; conditions: Streptococcus pneumoniae, AB23; S. No. 43, S. pneumoniae AB 23; read-out: MIC
H. influenzae 451 = assay: MIC against Haemophilus strains; assay type: cell-based; conditions: Haemophilus influenzae; s. No. 8, H. influenzae 451; read-out: MIC

| Compound | MIC (S. pneumoniae 1256) | MIC [1] | MIC (Salmonella 205) | MIC [2] | MIC (H. influenzae 1381) | MIC (E. faecium 6A (VRE)) | MIC (S. epidermidis 358) | MIC (S. pneumoniae AB-2) | MIC (S. pneumoniae ATCC 49619) | MIC (K. oxytoca 49131) | MIC (S. pneumoniae AB-3) | MIC (S. pyogenes 25147) | MIC (S. pneumoniae 1251) | MIC (S. pneumoniae AB 30) | MIC (H. influenzae 49766) | MIC (S. aureus (MRSA) ST450) | MIC (E. faecalis 21777) | MIC (S. aureus (MRSA) 15187) | MIC (E. faecalis SP 346 (VRE)) | MIC (S. epidermidis 823) | other results |
| --- | --- | --- | --- | --- | --- | --- | --- | --- | --- | --- | --- | --- | --- | --- | --- | --- | --- | --- | --- | --- | --- |
| CC(=O)NC[C@H]1CN(c2ccc(N3CCN(c4ccc(C=O)s4)CC3)c(F)c2)C(=O)O1 [Compound No. 2, (S)—N-[[3-[3-Fluoro-4-[4-(5-formyl-2-thienyl)-1-piperazinyl]phenyl]-2-oxo-5-oxazolidinyl]methyl]acetamide] | < 0.25 µg/mL | 0.5 µg/mL (≈ 1.12 µM) | > 16 µg/mL | < 0.25 µg/mL | 8 µg/mL (≈ 17.9 µM) | 1 µg/mL (≈ 2.24 µM) | 0.5 µg/mL (≈ 1.12 µM) | < 0.25 µg/mL | 0.5 µg/mL (≈ 1.12 µM) | > 16 µg/mL | < 0.25 µg/mL | 0.5 µg/mL (≈ 1.12 µM) | 0.5 µg/mL (≈ 1.12 µM) | 0.5 µg/mL (≈ 1.12 µM) | > 16 µg/mL | 1 µg/mL (≈ 2.24 µM) | 0.5 µg/mL (≈ 1.12 µM) | 0.5 µg/mL (≈ 1.12 µM) | 0.5 µg/mL (≈ 1.12 µM) | 0.5 µg/mL (≈ 1.12 µM) | MIC (Moraxella M6): 0.5 µg/mL (≈ 1.12 µM); MIC (S. pneumoniae AB 22): 0.5 µg/mL (≈ 1.12 µM); MIC (S. pneumoniae AB 23): 0.5 µg/mL (≈ 1.12 µM); MIC (H. influenzae 451): 16 µg/mL (≈ 35.8 µM) |
| CC(=O)NC[C@H]1CN(c2ccc(N3CCN(c4ccc(C=O)o4)CC3)c(F)c2)C(=O)O1 [Compound No. 3, (S)—N-[[3-[3-Fluoro-4-[4-(5-formyl-2-furyl)-1-piperazinyl]phenyl]-2-oxo-5-oxazolidinyl]methyl]acetamide] | 0.5 µg/mL (≈ 1.16 µM) | 0.25 µg/mL (≈ 0.581 µM) | > 16 µg/mL | 0.25 µg/mL (≈ 0.581 µM) | 8 µg/mL (≈ 18.6 µM) | 0.5 µg/mL (≈ 1.16 µM) | 0.5 µg/mL (≈ 1.16 µM) | < 0.125 µg/mL | 0.25 µg/mL (≈ 0.581 µM) | > 16 µg/mL | 0.25 µg/mL (≈ 0.581 µM) | 0.25 µg/mL (≈ 0.581 µM) | 0.25 µg/mL (≈ 0.581 µM) | 0.25 µg/mL (≈ 0.581 µM) | 8 µg/mL (≈ 18.6 µM) | 1 µg/mL (≈ 2.32 µM) | 0.5 µg/mL (≈ 1.16 µM) | 1 µg/mL (≈ 2.32 µM) | 0.5 µg/mL (≈ 1.16 µM) | 0.5 µg/mL (≈ 1.16 µM) | MIC (S. pneumoniae AB 22): 0.25 µg/mL (≈ 0.581 µM); MIC (S. pneumoniae AB 23): 0.25 µg/mL (≈ 0.581 µM); MIC (H. influenzae 451): 8 µg/mL (≈ 18.6 µM) |
